From US20060281806A1, “Treatment and inhibition of disease conditions using flexible heteroarotinoids” (priority 2005, published 2006) come the findings set out here.

Entries after “also recorded” stand apart in the source; their conditions may differ.

Series [1] has as its system OVCAR-3 xenograft tumors. Nature of the series: OVCAR-3 xenograft tumor animal model, tumor growth. The class given is in vivo, mouse. The following applies: 10 mg/kg/day by gavage, 5 days/week, 4 weeks; t-test on day 29. As to the method: Groups of 5 mice bearing OVCAR-3 xenografted tumors were gavaged daily with the indicated drugs in sesame oil (▪ closed square) or with sesame oil alone (∘ open circle). Tumor volumes were measured in 3 dimensions with calipers weekly. Each data point represents the average and standard error of the tumor volumes on the indicated treatment day relative to the tumor volume on day zero. Nu/nu mice were injected subcutaneously with one million OVCAR-3 cells and arbitrarily divided into five groups of six mice each. After three weeks of tumor growth, the animals were gavaged with sesame oil, 10 mg/kg/day 4-HPR, or the indicated Het five times per week for four weeks and the tumors were measured once per week. The tumor sizes were averaged and divided by the average size for each group on the day that treatment was initiated (day 0).
The OVCAR-3 cultures were maintained in RPMI media supplemented with 10% fetal bovine serum. All animal experimentation described in this manuscript was conducted in accord with accepted standards of humane animal care. Twenty-five female NU/NU CD-1 female mice (Charles Rivers Laboratories) were housed in a laminar flow room under sterile conditions at 83-85° F. The mice were quarantined for one week prior to the beginning of the study and were allowed access to autoclaved food (Purina 5001 mouse/rat sterilizable diet, St. Louis, Mo.) and water ad libitum. OVCAR-3 cells in log phase growth were harvested by trypsinization, resuspended in RPMI culture medium, and centrifuged at 3,000 rpm for 10 min. The pellets were resuspended in RPMI culture medium at a concentration of 7×10^6 cells/ml before implantation into mice. Animals were injected with 3.5×10^6 cells into the right scapular region with a 24-gauge needle/1 cc tuberculin syringe. Twenty-four hours after tumor implantation, animals were randomized into 5 groups of 5 animals each.
The Hets SHet50, SHetA2 and SHetA4 were synthesized and their receptor specificity determined as previously described (17,19). The 4-HPR compound was a gift from R.W. Johnson Pharmaceutical Research Institute, Raritan, N.J. All retinoids were dissolved in super refined sesame oil (Croda, Inc., Parsippany, N.J.) and stored at −80° C. Since the retinoids are light sensitive, all manipulations involving retinoids were performed under subdued lighting. […] Tumors were measured with calipers weekly, and tumor volumes were calculated using the formula: volume=length×width×height. Tumor growth was determined by the dividing the volume of the tumor at each weekly measurement by the volume on the first day of treatment. Animal weights and clinical signs of overall health status and cutaneous toxicities were recorded weekly.

Series [2] concerns OVCAR-3 xenograft tumors. Briefly: Histochemical and immunohistochemical evaluation of xenograft tumors (glands, MUC-1, TUNEL). The class given is in vivo, mouse. The note with it: 10 mg/kg/day by gavage; end of treatment; versus control. The text has this: On the last day of treatment, the animals were sacrificed and then the tumors were removed, fixed in neutral buffered formalin and embedded in paraffin. Five micron sections of the paraffin-embedded tumors were stained with hematoxylin and eosin (H&E) for histologic evaluation, and with the TUNEL (terminal deoxynucleodidyl transferase-mediated biotin-deoxyuridine triphosphate nick) FragEL kit (Oncogene Research Products, Boston, Mass.) for evaluation of apoptosis according to manufacturers instructions. MUC-1 expression was detected in tumor sections using a mouse monoclonal antibody to human MUC-1 (Pharmingen, San Diego, Calif.) and the Histostain-Plus AEC Kit (Zymed Laboratories, San Francisco, Calif.) according to manufacturers instructions. Briefly, endogenous peroxidase activity in deparaffinized sections was quenched with 3% H2O2 in methanol and then sections were incubated in serum blocking solution, and subsequently in primary antibody, diluted 1:50 in phosphate buffered saline (PBS), overnight at 4° C. in a humid chamber. Sections were then washed with PBS, treated with biotinylated secondary antibody for 15 minutes, followed by enzyme conjugate for 10 minutes. […] Tumor sections were scored for number of glands (quantified in one H&E stained sections and 3 MUC-1-stained sections) and MUC-1 and TUNEL staining (based on staining intensity and percent positive cells). […]

The test system of series [3] is dorsal skin of female Skh hairless mice. Briefly: Topical irritancy. The class given is in vivo. The note with it: mouse, in vivo. As to the method:
Female Skh hairless mice, 6-8 weeks old, were treated topically on the dorsal skin for 4 days over a 2-log concentration dose range with various compounds. Retinoic acid receptor-Hets were evaluated in A, while retinoic acid receptor-independent Flex-Hets were evaluated in B. Daily flaking and abrasion scores were combined to calculate a single cutaneous toxicity score for each mouse. Each treatment group consisted of 4 mice, and group averages were used to plot cutaneous toxicity against doses of the compounds.
Topical irritancy was evaluated according to published procedures (29). Briefly, female Skh hairless mice, 6-8 weeks old, were treated topically on the dorsal skin for 4 days over a 2-log concentration dose range with various compounds. Daily flaking and abrasion scores were combined to calculate a single cutaneous toxicity score for each mouse. Each treatment group consists of 4 mice, and group averages are used to plot cutaneous toxicity against dose of the retinoid compound.

In series [4] the test system is EAhy.926 endothelial cells. Nature of the series: Endothelial tube branching on matrigel. The class given is cell-based. The note with it: various concentrations (1, 5, 10 μM); scored after twenty hours. The source says:
(§1) The graph on the left provides quantification of the endothelial branches for each treatment dose.

Series [5] deals with EAhy.926 endothelial cells. Nature of the series: Growth/viability of endothelial cells versus ovarian cancer cell lines. The note with it: SHetA2 for 24 hours. The class given is cell-based. As for the experimental part: as §1
The increased thickness of the vessels at 1 μM and the increasing proportions of solitary clumps of cells at 5 and 10 μM indicate that SHetA2 is inhibiting endothelial cell migration. To determine if this anti-angiogenic activity was due to growth inhibition or cytotoxicity. The viability of the endothelial cells treated with SHetA2 for 24 hours was evaluated. […] This confirms the therapeutic ratio observed in previous studies.

On to `CC1(C)CC(C)(C)c2cc(NC(=S)Nc3ccc([N+](=O)[O-])cc3)ccc2S1` [SHetA2], for which the “growth of xenograft tumors versus sesame oil control” value in the series on OVCAR-3 xenograft tumors [1] was “significantly inhibited the growth; also recorded: significantly less”. For the same compound, in the series on OVCAR-3 xenograft tumors [2], the “MUC-1 expression in xenograft tumors” value is “increase staining for mucin-1 (MUC1) protein” and the “gland formation (numbers of glands) in xenograft tumors” value is given as “greatest degree of gland induction”. The “topical irritancy (cutaneous toxicity score)” value in series [3] is “did not induce topical irritancy”. In series [4], the “endothelial tube branching (in vitro angiogenesis)” value is reported as “dose-responsive inhibition of angiogenesis”. For the same compound, the “growth inhibition of endothelial cells compared with A2780 and OVCAR-3” value in series [5] is recorded as “much less growth inhibited”.
